Holding throughout (format): in vivo
In series [1] the test system is Psuedomonas syringae pv. lachrymans. Description: Establishment of seed priming conditions using BTH: induced systemic resistance in cucumber (culture dish and pot), degree of symptom. To be noted: cucumber seed soaked in 1 mM BTH for 12 hours and 18 hours; in vitro and in planta. Here is the method: (§1) Regarding the priming of a cucumber seed, to establish conditions for seed treatment at which induced systemic resistance against is induced in a plant without inhibiting plant growth, a cucumber seed was treated with BTH (benzothiadiazole), i.e., a potent substance for eliciting resistance, and it was cultivated in a rectangular culture solution dish (125×125 mm) and a pot for determination. The cucumber seed (Bakbong Dadagi, manufactured by Nongwoo Bio, Korea) was subjected to surface sterilization for 5 minutes using 5% NaOCl and, after rinsing 5 times with sterilized water, died on a filter paper. The sterilized seed was soaked for 0, 6, 12, or 18 hours in BTH solution each at 0.1 μM, 10 μM, or 1 mM. 0 Hour means that the seed was dried immediately after soaking. The soaked seed was dried for 12 hours on a culture dish overlaid with a sterilized filter paper. The seed after priming was sown in a pot filled with soil for horticulture (Punong Co., Ltd., Korea) and also in a rectangular culture dish containing distilled water-agar medium (Water agar; WA, plant agar (8 g/L)). […] Seven days later, any symptom of disease was determined, and the degree of symptom was measured with scale of from 1 to 5. […] Stem weight was measured simultaneously with determination of the degree of symptom to see if there is any growth inhibition.

Another series has as its system PR2 gene. Briefly: qRT-PCR expression of plant disease resistance-related gene PR2 in cucumber leaf after pathogen inoculation. The conditions noted are these: after 24 hours. Here is the method:
(§2) In order to measure an expression amount of a plant disease resistance-related gene, pathogen was inoculated to a cucumber, and sampling was made 0, 3 or 24 hours later. Total RNA was isolated from the sampled cucumber leaf by using RNeasy Plus Mini Kit (50). cDNA was synthesized from 2 μg of the RNA by using an oligo-dT primer and MMLV-RT (Moloney murine leukemia virus reverse transcriptase, Enzynomics, KOREA). cDNA was then used for qRT-PCR (quantitative Reverse Transcriptase Polymerase Chain Reaction) based on Chromo4 Real Time PCR system (BIO-RAD) by using each primer for the genes of LOX, PR2 and ETR that are known to be related to resistance to diseases. LOX primer is as follows; forward direction: 5′-[…]-3′ (SEQ ID NO: 1) and reverse direction: 5′-[…]-3′ (SEQ ID NO: 2), PR2 primer is as follows; forward direction: 5′-[…]-3′ (SEQ ID NO: 3) and reverse direction: 5′-[…]-3′ (SEQ ID NO: 4), and ETR primer is as follows; forward direction: 5′-[…]-3′ (SEQ ID NO: 5) and reverse direction: 5′-GCCAAAGACCACTGCCACA-3′ (SEQ ID NO: 6).
For orientation: Quantitative PCR measures a nucleic acid by following its amplification.

Another series has as its system LOX gene. Briefly: qRT-PCR expression of plant disease resistance-related gene LOX in cucumber leaf after pathogen inoculation. To be noted: BTH treatment group; time not stated. Here is the method:
as §2

Another series deals with cucumber. Briefly: Establishment of seed priming conditions using BTH: stem weight to see growth inhibition. The method, then: as §1

This note sets out measurements from patent US9781938B2, “Method for eliciting plant immune responses by seed priming of heat-treated Bacillus culture solution” (KOREA RESEARCH INSTITUTE OF BIOSCIENCE AND BIOTECHNOLOGY, priority 2012, dated 2017).

In the case of `CSC(=O)c1cccc2nnsc12` [BTH, benzo(1,2,3)-thiadiazole-7-carbothioic acid S-methyl ester], the “eliciting induced systemic resistance” value in series [1] is on record as “most effective”. The compound also came in with a PR2 expression level with PR2 gene of 1.7. Further, the “PR2 expression level relative to water (0.4)” value in the series on PR2 gene (vs negative control water) is listed as 4.3 times. The “expression level of LOX gene versus negative control” value with LOX gene is given as “close to that of a negative control”. In addition, the “growth inhibition (stem weight)” value in the series on cucumber (seed soaked in 1 mM BTH for 12 hours) was “no growth inhibition”; with cucumber (seed treated with 1 mM BTH for 18 hours, compared to sterilized water control), “growth inhibition is shown with a statistic significance”.
